Read-outs that look alike come from different tables or passages of the source.
Assays:
Test in all cases: Test A pre-/postemergence greenhouse herbicide test
Format in all cases: in vivo
[1] = test system: barnyardgrass (Echinochloa crus-galli); conditions: Echinochloa crus-galli, 240 h, 0 to 100 scale (0 no effect, 100 complete control), approx. 10 d, read-out: Plant response rating, Barnyardgrass; for pest or weed control at 125 g/ha: 125 g ai/ha; for pest or weed control at 500 g/ha: 500 g ai/ha
How it was run: (§1)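 Greenhouse pre- and postemergence treatment in loam/sand soil, test chemicals in non-phytotoxic solvent with surfactant; postemergence plants 2–10 cm, one- to two-leaf stage. Visual injury rated after approximately 10 d versus untreated controls, 0 (no effect) to 100 (complete control).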

corn (Zea mays) = conditions: Zea mays, 240 h, 0 to 100 scale (0 no effect, 100 complete control), approx. 10 d; for Corn plant response rating (crop injury, 0 = no effect, 100 = complete kill) at 125 g/ha: 125 g ai/ha; for Corn plant response rating (crop injury, 0 = no effect, 100 = complete kill) at 500 g/ha: 500 g ai/ha
How it was run: as §1

[2] = test system: crabgrass, Large (large crabgrass, Digitaria sanguinalis); conditions: Digitaria sanguinalis, 240 h, 0 to 100 scale (0 no effect, 100 complete control), approx. 10 d, read-out: Plant response rating, Crabgrass, Large; for pest or weed control at 125 g/ha: 125 g ai/ha; for pest or weed control at 500 g/ha: 500 g ai/ha
How it was run: as §1

[3] = test system: foxtail, giant (giant foxtail, Setaria faberii); conditions: Setaria faberi, 240 h, 0 to 100 scale (0 no effect, 100 complete control), approx. 10 d, read-out: Plant response rating, Foxtail, Giant; for pest or weed control at 125 g/ha: 125 g ai/ha; for pest or weed control at 500 g/ha: 500 g ai/ha
How it was run: as §1

[4] = test system: morningglory (Ipomoea spp.); conditions: Ipomoea, 240 h, 0 to 100 scale (0 no effect, 100 complete control), approx. 10 d, read-out: Plant response rating, Morningglory; for pest or weed control at 125 g/ha: 125 g ai/ha; for pest or weed control at 500 g/ha: 500 g ai/ha
How it was run: as §1

[5] = test system: pigweed (Amaranthus retroflexus); conditions: Amaranthus retroflexus, 240 h, 0 to 100 scale (0 no effect, 100 complete control), approx. 10 d, read-out: Plant response rating, Pigweed; for pest or weed control at 125 g/ha: 125 g ai/ha; for pest or weed control at 500 g/ha: 500 g ai/ha
How it was run: as §1

[6] = test system: velvetleaf (Abutilon theophrasti); conditions: Abutilon theophrasti, 240 h, 0 to 100 scale (0 no effect, 100 complete control), approx. 10 d, read-out: Plant response rating, Velvetleaf; for pest or weed control at 125 g/ha: 125 g ai/ha; for pest or weed control at 500 g/ha: 500 g ai/ha
How it was run: as §1

[7] = test system: wheat (Triticum aestivum); conditions: Triticum aestivum, 240 h, 0 to 100 scale (0 no effect, 100 complete control), approx. 10 d, read-out: Plant response rating, Wheat; for plant injury at 125 g/ha: 125 g ai/ha; for plant injury at 500 g/ha: 500 g ai/ha
How it was run: as §1

| Structure (SMILES) | pest or weed control at 125 g/ha ([1]; post-emergence, Postemergence) | pest or weed control at 500 g/ha ([1]; post-emergence, Postemergence) | pest or weed control at 125 g/ha ([1]; pre-emergence, Preemergence) | pest or weed control at 500 g/ha ([1]; pre-emergence, Preemergence) | Corn plant response rating (crop injury, 0 = no effect, 100 = complete kill) at 125 g/ha (corn (Zea mays); post-emergence, Postemergence) | Corn plant response rating (crop injury, 0 = no effect, 100 = complete kill) at 500 g/ha (corn (Zea mays); post-emergence, Postemergence) | Corn plant response rating (crop injury, 0 = no effect, 100 = complete kill) at 125 g/ha (corn (Zea mays); pre-emergence, Preemergence) | Corn plant response rating (crop injury, 0 = no effect, 100 = complete kill) at 500 g/ha (corn (Zea mays); pre-emergence, Preemergence) | pest or weed control at 125 g/ha ([2]; post-emergence, Postemergence) | pest or weed control at 500 g/ha ([2]; post-emergence, Postemergence) | pest or weed control at 125 g/ha ([2]; pre-emergence, Preemergence) | pest or weed control at 500 g/ha ([2]; pre-emergence, Preemergence) | pest or weed control at 125 g/ha ([3]; post-emergence, Postemergence) | pest or weed control at 500 g/ha ([3]; post-emergence, Postemergence) | pest or weed control at 125 g/ha ([3]; pre-emergence, Preemergence) | pest or weed control at 500 g/ha ([3]; pre-emergence, Preemergence) | pest or weed control at 125 g/ha ([4]; post-emergence, Postemergence) | pest or weed control at 500 g/ha ([4]; post-emergence, Postemergence) | pest or weed control at 125 g/ha ([4]; pre-emergence, Preemergence) | pest or weed control at 500 g/ha ([4]; pre-emergence, Preemergence) | also measured |
| --- | --- | --- | --- | --- | --- | --- | --- | --- | --- | --- | --- | --- | --- | --- | --- | --- | --- | --- | --- | --- | --- |
| Cc1cc(=O)n(-c2ccc(F)cc2)nc1Cn1ccc(C(F)(F)F)n1 [Compound 3, 2-(4-fluorophenyl)-5-methyl-6-[[3-(trifluoromethyl)-1H-pyrazol-1-yl]methyl]-3(2H)-pyridazinone] | 0% | 10% | 0% | 20% | 0% | 20% | 0% | 0% | 10% | 30% | 30% | 90% | 10% | 30% | 0% | 40% | 60% | 70% | 0% | 0% | pest or weed control at 125 g/ha ([5]; post-emergence, Postemergence): 60%; pest or weed control at 500 g/ha ([5]; post-emergence, Postemergence): 70%; pest or weed control at 125 g/ha ([5]; pre-emergence, Preemergence): 20%; pest or weed control at 500 g/ha ([5]; pre-emergence, Preemergence): 80%; pest or weed control at 125 g/ha ([6]; post-emergence, Postemergence): 30%; pest or weed control at 500 g/ha ([6]; post-emergence, Postemergence): 80%; pest or weed control at 125 g/ha ([6]; pre-emergence, Preemergence): 0%; pest or weed control at 500 g/ha ([6]; pre-emergence, Preemergence): 20%; plant injury at 125 g/ha ([7]; post-emergence, Postemergence): 0%; plant injury at 500 g/ha ([7]; post-emergence, Postemergence): 0%; plant injury at 125 g/ha ([7]; pre-emergence, Preemergence): 0%; plant injury at 500 g/ha ([7]; pre-emergence, Preemergence): 0% |
| Cc1cc(=O)n(-c2ccc(C(F)(F)F)cc2)nc1Oc1ccnc(C(F)(F)F)c1 [Compound 5, 5-methyl-2-[4-(trifluoromethyl)phenyl]-6-[[2-(trifluoromethyl)-4-pyridinyl]oxy]-3(2H)-pyridazinone] | 20% | 70% | 40% | 90% | 20% | 30% | 0% | 10% | 50% | 80% | 100% | 100% | 60% | 90% | 90% | 100% | 60% | 100% | 60% | 80% | pest or weed control at 125 g/ha ([5]; post-emergence, Postemergence): 100%; pest or weed control at 500 g/ha ([5]; post-emergence, Postemergence): 100%; pest or weed control at 125 g/ha ([5]; pre-emergence, Preemergence): 100%; pest or weed control at 500 g/ha ([5]; pre-emergence, Preemergence): 100%; pest or weed control at 125 g/ha ([6]; post-emergence, Postemergence): 70%; pest or weed control at 500 g/ha ([6]; post-emergence, Postemergence): 100%; pest or weed control at 125 g/ha ([6]; pre-emergence, Preemergence): 20%; pest or weed control at 500 g/ha ([6]; pre-emergence, Preemergence): 100%; plant injury at 125 g/ha ([7]; post-emergence, Postemergence): 30%; plant injury at 500 g/ha ([7]; post-emergence, Postemergence): 40%; plant injury at 125 g/ha ([7]; pre-emergence, Preemergence): 0%; plant injury at 500 g/ha ([7]; pre-emergence, Preemergence): 10% |
